Source: the NIST ThermoML archive (doi:10.1016/j.tca.2013.12.016)

Assay: mn = molality of the nth substance listed, in mol/kg
Details: 101 kPa, Liquid; for speed of sound: Linear variable-path acoustic interferometer; for mass density: Vibrating tube method

CCOC(C)=O [ethyl acetate] + CO
Details	mass density, 298.15 K [kg/m3]	mass density, 303.15 K [kg/m3]	mass density, 308.15 K [kg/m3]	mass density, 313.15 K [kg/m3]	speed of sound, 298.15 K [m/s]	speed of sound, 303.15 K [m/s]	speed of sound, 308.15 K [m/s]	speed of sound, 313.15 K [m/s]
m2 = 0.0111	894.5	888.9	883	877.1	1110	1086	1059	1038
m2 = 0.0223	894.6	888.8	882.9	877	1113	1089	1062	1041
m2 = 0.0495	894.7	888.7	882.8	876.9	1116	1092	1065	1044
m2 = 0.1474	894.9	888.6	882.7	876.8	1119	1095	1068	1047
m2 = 0.2878	894.7	888.5	882.4	876.4	1122	1098	1071	1050
m2 = 0.3556	894.4	888.3	882.1	876.2	1125	1101	1074	1053
m2 = 0.4905	893.6	887.7	881.6	875.8	1128	1104	1077	1056
m2 = 0.7268	892.2	886.4	880.6	874.8	1131	1107	1080	1059
m2 = 0.974	890.5	884.9	879.1	873.8	1134	1110	1089	1062
m2 = 1.409	888.2	882.6	877	871.6	1137	1113	1092	1065
m2 = 2.445	886.1	879.8	873.8	868.4	1140	1116	1095	1068
m2 = 3.001	886	879.1	873.1	867.9	1143	1122	1098	1071

COC(C)=O [methyl ethanoate] + CCO
Details	mass density, 298.15 K [kg/m3]	mass density, 303.15 K [kg/m3]	mass density, 308.15 K [kg/m3]	mass density, 313.15 K [kg/m3]	speed of sound, 298.15 K [m/s]	speed of sound, 303.15 K [m/s]	speed of sound, 308.15 K [m/s]	speed of sound, 313.15 K [m/s]
m2 = 0.0152	927	920.5	914.2	908	1153	1134	1113	1089
m2 = 0.0357	926.8	920.3	914	907.8	1152	1131	1110	1086
m2 = 0.065	926.6	920.1	913.8	907.6	1150	1130	1108	1084
m2 = 0.102	926.3	919.8	913.5	907.3	1149	1128	1107	1083
m2 = 0.2098	925.5	919	912.7	906.5	1146	1125	1104	1080
m2 = 0.3417	924.5	918	911.7	905.5	1143	1122	1101	1077
m2 = 0.5068	923.1	916.7	910.4	904.1	1140	1119	1098	1074
m2 = 0.6769	921.8	915.4	909.1	902.8	1137	1116	1095	1071
m2 = 0.9775	919.5	913.1	906.9	900.6	1134	1113	1092	1068
m2 = 1.702	914.4	908	901.9	895.5	1131	1110	1089	1065
m2 = 2.712	907.8	901.5	895.4	889	1128	1107	1086	1062
m2 = 3	905.8	899.7	893.5	887.1	1122	1104	1080	1056
